Earlier results in patent publication US9861579B2, “Foamable formulation” (Nuvo Pharmaceuticals Inc., priority 2010, dated 2018).

CC(C)Cc1ccc(C(C)C(=O)O)cc1 (racemic) [Ibuprofen, 2-(4-isobutylphenyl) propanoic acid]
log P: 3.6
solubility in water (practically insoluble in water): < 0.1 mg/mL
